Data set [1] relates to OCT4, NANOG. As to the kind of experiment: Pluripotency marker expression (qRT-PCR) in iPSCs after epigenetic modifiers. Type of data set: cell-based, human. The settings on record: iPSCs treated 3 days: 5 μM Nanomycin A, 10 μM LSD1 inhibitor, 5 μM 5-Azacytidine, 10 μM GSK126. As to the method:
Total RNA was extracted using the RNeasy mini kit (Qiagen), and the SuperScript III First-Strand Synthesis System (Invitrogen) was used to synthesize cDNA according to the manufacturer's instructions. Real-time PCR was performed on a Bio-Rad iQ5 real-time PCR machine.
(§1) For the collection of CM, separate cultures of hiPSCs were set up for 3 days with one of the following small molecules: 5 μM Nanomycin A (A8191, Apexbio), 10 μM LSD1 inhibitor (489476, Millipore-Sigma), 5 μM 5-Azacytidine (C832A53, Thomas Scientific), and 10 μM GSK126 (67-905, Tocris). After 3 days of treatment, CM was collected (without the inhibitors) using the same protocol as described above.
For orientation: Real-time PCR tracks product formation cycle by cycle.

In data set [2] the test system is ALS-MNPs. The data set is described as follows: Viability (MTT) and apoptosis (Annexin V) of H2O2 exposed ALS-MNPs, incl. epigenetic inhibitors screen. Type of data set: cell-based, human. The method, then:
[…] MNs were cultured in a 96-well plate at a cell density of 2×10^4 and treated with H2O2 and/or CMs for 24 hours before performing the viability assay. A SpectraMax iD3 Multi-Mode Microplate Reader (Molecular Devices) was used for measuring fluorescence intensity (560/590 nm).
The apoptosis assay of fibroblasts was by Annexin V-CF Blue/7-AAD Apoptosis Detection Kit (ab214663, Abcam) according to the manufacturer's protocol. Briefly, cells were detached using 0.05% trypsin and washed twice with PBS. Then, samples were resuspended in 1× annexin-binding buffer and incubated with 5 μL Annexin V-FITC and 5 μL 7-amino-actinomycin D (7AAD) for 15 min at 37° C., avoiding light. Finally, the stained samples were analyzed on a Guava Easycyte Flowcytometer (Millipore-Sigma) at an excitation wavelength of 488 nm and emission filters of 525 and 625 nm. For MNs, the apoptotic assay was conducted on two different markers, FITC-conjugated-annexinV (ab201540) or Cleaved caspase 3 (9669S). For annexinV detection, MNs in 96-well plates were washed twice with PBS. Then, 100 μL Annexin V binding buffer was added with 5 μL Annexin V-FITC for 5 min incubation at 37° C., avoiding light. The stained plate was analyzed on a SpectraMax iD3 Multi-Mode Microplate Reader (490/525 nm). For the Cleaved caspase 3, the immunofluorescence protocol was used.
as §1
Based on the absence of neuroprotective activity in the differentiated progeny of iPSCs, we decided to confirm and mechanistically extrapolate the relationship between the protective effects and pluripotency. […] To follow on the requirement for pluripotency, we employed a screen with inhibitors of pluripotency that modify the epigenetic states of iPSCs. […]

The test system of data set [3] is human motor neurons (MNs). The data set is described as follows: MTT viability and Annexin V apoptosis assays of human motor neurons exposed to H2O2. Type of data set: cell-based. As to the method: The process of MNP and MN differentiation was as published (61). Briefly, hPSCs were detached by 0.5 mM EDTA and split 1:10 on Matrigel-coated plates (1:50 dilution). After one day, the Essential 8 was changed to neural inducing medium containing neural basal medium (NBM) plus 3 μM CHIR99021 (Tocris), 2 μM LDN-193189 (Tocris) and 3 μM SB431542 (Stemgent). The NBM is composed of DMEM/F12, Neurobasal medium (FisherScientific) at 1:1, N2, B27, 0.1 mM ascorbic acid (Millipore-Sigma), 1× Glutamax and 1× penicillin/streptomycin (all from Invitrogen). The inducing medium was maintained for 5 days and changed every other day. On day 5, the cultured cells were split at 1:6 with Accutase and cultured in NBM containing 3 μM CHIR99021, 2 μM SB431542, 0.1 μM retinoic acid (RA, Stemgent) and 0.5 μM purmorphamine (Pur, Stemgent). […]
[…] A SpectraMax iD3 Multi-Mode Microplate Reader (Molecular Devices) was used for measuring fluorescence intensity (560/590 nm).
The apoptotic assay of fibroblasts was by Annexin V-CF Blue/7-AAD Apoptosis Detection Kit (ab214663, Abcam) according to the manufacturer's protocol. […] Finally, the stained samples were analyzed on a Guava Easycyte Flowcytometer (Millipore-Sigma) at an excitation wavelength of 488 nm and emission wavelengths of 525 and 625 nm. […] The stained plate was analyzed on a SpectraMax iD3 Multi-Mode Microplate Reader (495/525 nm). […]

Data set [4] relates to IMR90 fibroblasts. As to the kind of experiment: MTT viability assay of IMR90 fibroblasts (H2O2, hESC-CM, dF-CM). Type of data set: cell-based. The settings on record: 200 μM H2O2. From the text: hESC conditioned medium was previously shown to enhance myogenic and neurogenic responses of tissue precursor cells (43, 44), but the effects on cell viability were less studied. We decided to explore a protective role of hESC conditioned medium (hESC-CM) when cells experience oxidative damage, which is physiologically and clinically relevant in a number of human diseases (56, 57). To set up this experimental system, we first performed dose response studies in IMR90 fibroblasts to varying concentrations of H2O2 and of hESC-CM using an MTT assay.
We then tested eight experimental cohorts, e.g., 200 μM H2O2 alone or in combination with 30% hESC-CM or CM from hESC-derived fibroblasts (dF-CM) (43) and controls for the various culture medium formulations (FIG. 1, panel C).
When cells were grown to 70% confluence, they were subcultured at 1/5 dilution for later passaging.
After H2O2 and/or CM or CM-derived factors treatment, the number of viable cells was determined by a resorufin based assay using the commercially available CellTiter-Blue® cell viability assay (G8080, Promega), as per the manufacturer's protocol. MNs were cultured in a 96-well plate at a cell density of 2×10^4 and treated with H2O2 and/or CMs for 24 hours before performing the viability assay. A SpectraMax iD3 Multi-Mode Microplate Reader (Molecular Devices) was used for measuring fluorescence intensity (560/590 nm). […]
A general note: Tetrazolium assays rely on reduction of a dye to a coloured formazan, in cell work by metabolically active cells.

[5] abbreviates: iPSCs treated 3 days with 10 μM GSK126 before CM collection, N=4, P<0.01.

In the case of `Nc1ncn([C@@H]2O[C@H](CO)[C@@H](O)[C@H]2O)c(=O)n1` [5Aza, 5-Azacytidine], in data set [1], the “Expression of OCT4 compared to the untreated groups (WTC11 and CS07)” value is on record as “significantly decreased”.
Consider `CC[C@H](C)n1cc(C)c2c(C(=O)NCc3c(C)cc(C)[nH]c3=O)cc(-c3ccc(N4CCNCC4)nc3)cc21` [GSK126], for which, in data set [2] (MNPs exposed to H2O2, pre-treated with CM), the “Effect of treating ALS iPSCs with the epigenetic inhibitor on the neuroprotective activity of their CM” value was “significantly reduced the neuroprotective activity”. Further, in data set [2] (setting [5]), the “Apoptosis (Annexin V) of H2O2 exposed ALS-MNPs treated with CM of ALS iPSCs without or with inhibitor pre-treatment” value came out at 2.65±0.23 and the “Viability (MTT) of H2O2 exposed ALS-MNPs treated with CM of ALS iPSCs without or with inhibitor pre-treatment” value stood at 0.47±0.02. Further, the “Expression of OCT4 compared to the untreated groups (WTC11 and CS07)” value in data set [1] is recorded as “the decrease was not significant”.
Take `C[C@@H]1O[C@@H](CC(=O)O)CC2=C1C(=O)c1c(O)cccc1C2=O` [NaA, Nanomycin A]: in data set [1], the “Expression of OCT4 compared to the untreated groups (WTC11 and CS07)” value was “significantly decreased”.
Take `OO` [H2O2]: the “Viability (MTT) of human MNs with H2O2 alone or co-treated with CM or fraction” value in data set [3] (H2O2, 200 μg/ml HBPs, unfractionated CM, N=4) turned out to be 0.49±0.01. The “Motor neuron viability after H2O2 treatment” value in data set [3] (human MNs, 200 μM H2O2) is given as “below 50%”. Besides, in data set [4], the “Cell viability (MTT) after H2O2 treatment” value is reported as “below 50%” and the “Cell viability after H2O2 treatment, normalized to the values at the 0 concentration” value is reported as “below 0.5”.

Values taken from US20240180972A1, “HUMAN PLURIPOTENT STEM CELL-DERIVED SECRETOME AS A BIOLOGIC FOR PREVENTION AND TREATMENT OF NEURODEGENERATIVE AND APOPTOTIC DISEASES” (The Regents of the University of California, priority 2021, published 2024).
